# Measured values taken from PubChem BioAssay (NCI).
#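 Compound exposure: 48 hours, 5 concentrations, 96-well plates. The concentration for full growth arrest is given as TGI.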
# Columns and labels:
# Assay in all cases: NCI-60 cell line screen, 48 h
# [1] = system: NCI-H460 lung
# [2] = system: DU-145 prostate
# [3] = system: RPMI-8226 leukemia
# [4] = system: OVCAR-8 ovarian
# [5] = system: A549 NSCLC
# [6] = system: 786-0 renal
# [7] = system: NCI-H226 lung
# [8] = system: SK-OV-3 ovarian
# [9] = system: SN12C renal
# [10] = system: OVCAR-5 ovarian
# [11] = system: LOX IMVI melanoma
# [12] = system: SF-295 CNS
# [13] = system: KM12 colon
# [14] = system: HOP-62 NSCLC
# [15] = system: NCI-H522 lung
# [16] = system: OVCAR-3 ovarian
# [17] = system: MDA-MB-231 breast
# [18] = system: T-47D breast
# [19] = system: HS 578T breast
# [20] = system: UACC-62 melanoma
SMILES,TGI [1] [µM],TGI [2] [µM],TGI [3] [µM],TGI [4] [µM],TGI [5] [µM],TGI [6] [µM],TGI [7] [µM],TGI [8] [µM],TGI [9] [µM],TGI [10] [µM],TGI [11] [µM],TGI [12] [µM],TGI [13] [µM],TGI [14] [µM],TGI [15] [µM],TGI [16] [µM],TGI [17] [µM],TGI [18] [µM],TGI [19] [µM],TGI [20] [µM]
N#CC(C(=O)c1cccnc1Cl)c1nc2cc(C(F)(F)F)ccc2s1 (stereo not drawn),> 100,> 100,> 100,> 100,> 100,> 100,> 100,> 100,> 100,> 100,> 100,> 100,> 100,> 100,61.4,> 100,> 100,> 100,,
C=CCn1c(-c2ccc([N+](=O)[O-])cc2)cs/c1=N\C(P(=O)(O)O)P(=O)(O)O,> 100,> 100,> 100,> 100,> 100,> 100,> 100,> 100,,> 100,> 100,> 100,> 100,> 100,> 100,> 100,> 100,,> 100,> 100
COc1ccccc1NC(=S)NN=C(C)c1cccc(C(C)=NNC(=S)Nc2ccccc2OC)n1,> 100,> 100,> 100,> 100,> 100,37.7,> 100,> 100,> 100,> 100,> 100,> 100,> 100,> 100,97.3,> 100,68.9,> 100,,> 100
Nc1nc2c3nc(Nc4ccccc4)sc3nc(=S)n2c2sc(Nc3ccccc3)nc12,,,,> 100,> 100,> 100,> 100,> 100,> 100,,,> 100,,> 100,> 100,,,,,> 100
NC(Cc1ccc(OCc2ccccc2)cn1)C(=O)O (stereo not drawn),> 100,> 100,> 100,> 100,> 100,> 100,> 100,,> 100,> 100,> 100,> 100,> 100,> 100,> 100,> 100,> 100,,> 100,
COP(=O)(OC)C(=O)N1N(c2ccc([N+](=O)[O-])cc2)C(=O)C(C)NC1(NNc1ccc([N+](=O)[O-])cc1)P(=O)(OC)OC (stereo not drawn),> 100,,> 100,> 100,> 100,> 100,> 100,,> 100,> 100,> 100,,> 100,> 100,> 100,> 100,,,,> 100
CC(=O)Nc1ccc(NCC(=O)Nn2cnc3ccc(S(=O)(=O)Nc4ccc(NC(C)=O)cc4)cc3c2=O)cc1,> 100,> 100,> 100,> 100,> 100,> 100,> 100,> 100,> 100,> 100,> 100,> 100,> 100,> 100,> 100,> 100,> 100,,> 100,> 100
CC(Nc1ncc2c(n1)-c1ccccc1OC2)C(=O)O (stereo not drawn),> 100,> 100,> 100,> 100,> 100,> 100,> 100,> 100,> 100,> 100,> 100,> 100,> 100,> 100,,> 100,> 100,,> 100,> 100
CCN(CC)C(=O)Cc1c(C(=O)N(CC)CC)c(=O)nc2sccn12,> 100,,> 100,> 100,> 100,> 100,> 100,> 100,> 100,,> 100,> 100,> 100,> 100,> 100,> 100,,,,> 100
CCCNC(=S)/N=C/c1c(O)cc(C)oc1=O,> 100,> 100,,> 100,> 100,> 100,> 100,> 100,> 100,> 100,> 100,> 100,> 100,> 100,,> 100,> 100,> 100,,> 100
CCc1n[nH]c(=O)n1/N=C/c1ccccc1O,,> 100,> 100,> 100,> 100,> 100,,> 100,> 100,> 100,> 100,> 100,> 100,> 100,> 100,> 100,> 100,,99,> 100
Cc1ccn2c(=O)cc(CN3CCOCC3)nc2c1,> 100,> 100,> 100,> 100,> 100,> 100,> 100,> 100,> 100,> 100,> 100,> 100,> 100,> 100,> 100,> 100,> 100,,> 100,> 100
Cc1ccc(S(=O)(=O)NC(=O)NCCc2cnc[nH]2)cc1,> 100,> 100,> 100,> 100,> 100,> 100,> 100,> 100,,> 100,> 100,> 100,> 100,> 100,> 100,> 100,> 100,,> 100,> 100
O=C(c1ccccc1)c1c(CC(O)c2ccccn2)n(C(=O)c2ccccc2)c2ccccc12 (stereo not drawn),57,,56,95.8,> 100,> 100,54,,,52.7,,84.8,> 100,38.2,47.2,68.4,,,,32.5
S=c1[nH]nc(CNc2ccc(-c3n[nH]c(=S)n3-c3ccc(Cl)cc3)cc2)n1-c1ccc(Cl)cc1,> 100,71.1,78,,> 100,70,> 100,> 100,82.8,46.4,,81.2,44,36.6,48.5,,> 100,,,78.8
CCOC(=O)c1nc2ccc(C(F)(F)F)cc2nc1NCc1ccc(OC)cc1,> 100,,> 100,> 100,> 100,> 100,> 100,> 100,,> 100,> 100,> 100,> 100,> 100,> 100,> 100,> 100,> 100,> 100,> 100
CC(=O)O[C@H]1C(=O)[C@@]2(C)[C@H]([C@H](OC(=O)c3cccc([N+](=O)[O-])c3)[C@]3(O)C[C@H](OC(=O)[C@H](O)[C@@H](NC(=O)c4ccccc4)c4ccccc4)C(C)=C1C3(C)C)[C@]1(OC(C)=O)CO[C@@H]1C[C@@H]2O,> 25,> 25,18.1,> 25,> 25,> 25,> 25,> 25,> 25,16.4,> 25,0.15,> 25,> 25,0.0161,0.0183,> 25,,0.00761,> 25
OC(c1ccc(F)cc1)C(F)(F)c1nc2ccccc2o1 (stereo not drawn),> 100,> 100,> 100,> 100,,> 100,> 100,> 100,,,> 100,> 100,> 100,> 100,,,> 100,> 100,,> 100
CCN(CC)c1cccc2c1/C(=N/O)CCCC2,> 100,,> 100,> 100,> 100,> 100,> 100,> 100,> 100,,> 100,> 100,> 100,> 100,> 100,,,,,> 100
N#Cc1cc(C#N)c(N)nc1N,> 100,> 100,> 100,> 100,> 100,> 100,> 100,> 100,> 100,> 100,> 100,> 100,> 100,> 100,> 100,> 100,> 100,,> 100,> 100
CC1(C)O[C@@H]([C@H](O)CO)[C@H](O)[C@@H](C2SCCCS2)O1,> 100,> 100,> 100,> 100,> 100,> 100,> 100,> 100,> 100,> 100,,> 100,> 100,> 100,,> 100,> 100,> 100,,> 100
